Measurements published in US11053170B2, “Liquid urease inhibitor formulations” (YARA INTERNATIONAL ASA, priority 2016, dated 2021).

Experiments:
rat = conditions: cited from earlier work
[1] = Stability of nBTPT on urea granules (coated); format: physicochemical; conditions: 500 ppm, bagged, room temperature
Protocol: In a next step, the nBTPT material was slowly added. A residence time of 10 minutes was applied and the rotating speed of the drum was consequently the same in each experiment. Larger scale experiments with amounts up to 40 kg of fertilizer material were performed in a concrete mixer.
The samples were stored under several conditions, dependent on the type of samples: • Bagged at room temperature (20° C.) or in a Nissen hut (an unconditioned bulk storage hall) • Open to air in a Nissen hut
Typically, a day/night cycle is generated in the Nissen hut, with temperature fluctuations between 0 to 42° C. and fluctuations of relative humidity between 20 and 90%, which can be compared with real life storage in silos.

urease = conditions: on urea; Rheinland soil (pH 6.5) and Palencia soil (pH 7.5); 25° C., 14 days
Protocol: Erlenmeyer flasks were filled with 300 g air-dried, arable topsoil, irrigated to a desired % of its WHC (Water Holding Capacity), incubated for 6 days prior to the application of the fertilizers. Fertilizers (2.5-3.15 mm granule size) at a concentration of 100 mg N (Nitrogen)/flask were applied over the soil surface. Boric acid traps were installed to catch volatile ammonia from the air above the topsoil, and the Erlenmeyer flasks were installed in a Phytotron chamber at 25° C. at windy but not dry conditions.

SMILES | toxicity oral rat LD50 (rat) [mg/kg] | nBTPT degradation in 155 days [1] | urease inhibitory activity and volatilization control (cumulated volatile ammonia losses) (urease)
CN1CCCC1 [NMP, N-methylpyrrolidine] | 3914 |  | 
CCCCNP(N)(N)=S [nBTPT, N-(n-butyl) thiophosphoric triamide] |  | about 75% | no statistically significant difference
